# Legend:
# Neu3 sialidase = conditions: 2 mM; lysates from mature dendritic cells; cited from earlier work
# Neu1 sialidase [1] = target: T1, Neu1 sialidase (Homo sapiens, UniProt Q99519); conditions: 2 mM; lysates from mature dendritic cells; cited from earlier work
# T1 construct: using lysates from mature dendritic cells; host or cells: lysates from mature dendritic cells
# [2] = target: T2, sialidase activity associated with TLR ligand treated live BMC-2 macrophage cells (Mus musculus, UniProt O35657); conditions: 1-2 mM, compared to LPS positive control; cited from earlier work
# T2 construct: endogenous in cells; host or cells: BMC-2 macrophage cells
# Neu1 sialidase [3] = conditions: NGF treated live TrkA-expressing cells; cited from earlier work
# human Neu3 sialidase = target: T3, human Neu3 sialidase (Homo sapiens, UniProt Q9UQ49); conditions: in the micromolar range; cited from earlier work
# T3 sequence (Q9UQ49 1-428): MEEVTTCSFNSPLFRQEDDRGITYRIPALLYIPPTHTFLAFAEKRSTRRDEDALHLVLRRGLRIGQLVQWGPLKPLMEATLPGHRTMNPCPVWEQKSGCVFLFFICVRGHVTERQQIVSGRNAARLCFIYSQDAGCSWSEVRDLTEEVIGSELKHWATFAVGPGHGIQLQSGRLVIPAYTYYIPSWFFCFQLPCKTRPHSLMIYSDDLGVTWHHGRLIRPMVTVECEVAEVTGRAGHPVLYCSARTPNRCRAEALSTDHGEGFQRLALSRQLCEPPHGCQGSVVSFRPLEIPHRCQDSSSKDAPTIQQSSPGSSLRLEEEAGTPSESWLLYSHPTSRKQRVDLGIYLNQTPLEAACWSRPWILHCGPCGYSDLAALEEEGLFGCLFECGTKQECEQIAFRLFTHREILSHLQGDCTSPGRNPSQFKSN
# PANC-1 cells = test: Cell viability of PANC-1 pancreatic cancer cells in culture (MTT or WST-1, 72 hrs); format: cell-based, human; conditions: PANC-1; for Chemo-drug LD50: MTT, 72 hrs
# MiaPaCa-2 cells = test: Cell viability of MiaPaCa-2 pancreatic cancer cells in culture (MTT or WST-1, 72 hrs); format: cell-based, human; conditions: MiaPaCa-2; for Chemo-drug LD50: MTT, 72 hrs
# MCF-7 cells = test: Cell viability of MCF-7 breast cancer cells in culture (MTT or WST-1, 72 hrs); format: cell-based, human; conditions: MCF-7; for Chemo-drug LD50: WST-1, 72 hrs
# Protocol: (§1) MDA MB-231cells (ATCC® Number: HTB-26™) are human mammary gland breast adenocarcinoma derived from metastatic pleural effusion with epithelial morphology. MCF-7 (ATCC® Number: HTB-22™) are human mammary gland breast adenocarcinoma derived from metastatic pleural effusion with epithelial morphology.
# (§2) All cells were grown at 37° C. in 5% CO2 in culture media containing Dulbecco's Modified Eagle Medium (DMEM) (Gibco, Rockville, Md.) supplemented with 10% fetal calf serum (FCS) (HyClone, Logan, Utah, USA).
# (§3) MTT is a colorimetric assay for measuring the activity of enzymes that reduce MTT or closely related dyes (XTT, MTS, WSTs) to formazan dye, giving a purple color. A main application allows the assessment of the viability (cell counting) and the proliferation of cells (cell culture assays). It can also be used to determine cytotoxicity of potential medicinal agents and toxic materials, since those agents would stimulate or inhibit cell viability and growth. MTT (3-(4,5-Dimethylthiazol-2-yl)-2,5-diphenyltetrazolium bromide, a yellow tetrazole), is reduced to purple formazan in living cells. A solubilization solution (usually either dimethyl sulfoxide, an acidified ethanol solution, or a solution of the detergent sodium dodecyl sulphate in diluted hydrochloric acid) is added to dissolve the insoluble purple formazan product into a coloured solution. The absorbance of this coloured solution can be quantified by measuring at a certain wavelength (usually between 500 and 600 nm) by a spectrophotometer. The absorption maximum is dependent on the solvent employed.
# (§4) WST-1 (Roche Applied Sciences, Montreal) is a ready-to-use substrate which measures the metabolic activity of viable cells. The WST-1 assay is nonradioactive and can be performed entirely in a microplate. It is suitable for measuring cell proliferation, cell viability or cytotoxicity. The assay is based on the reduction of WST-1 by viable cells. The reaction produces a soluble formazan salt. The procedure involves: Culturing the cells in a 96-well microplate, then incubating them with WST-1 for approx. 0.5-4 h. During this incubation period, viable cells convert WST-1 to a water-soluble formazan dye. Quantitating the formazan dye in the microplate is done with an ELISA plate reader. The absorbance directly correlates with the cell number.
# MDA MB-231 cells = test: Cell viability of MDA MB-231 breast cancer cells in culture (MTT or WST-1, 72 hrs); format: cell-based, human; conditions: MDA MB-231; for Chemo-drug LD50: WST-1, 72 hrs
# Protocol: as §1, §2, §3, §4
# A 2780cis cells = test: Cell viability of A 2780cis ovarian cancer cells in culture (MTT or WST-1, 72 hrs); format: cell-based, human; conditions: A 2780cis; for Chemo-drug LD50: WST-1, 72 hrs
# Protocol: (§5) A-2780 cells are human ovarian cancer cell line which was established from tumor tissue from an untreated patient with adenocarcinoma. Cells grow as a monolayer and in suspension in spinner cultures.
# as §2, §3, §4
# BxPC-3 cells = test: Cell viability of BxPC-3 pancreatic cancer cells in culture (MTT or WST-1, 72 hrs); format: cell-based, human; conditions: BxPC-3; for Chemo-drug LD50: MTT, 72 hrs
# A 2780 cells = test: Cell viability of A 2780 ovarian cancer cells in culture (MTT or WST-1, 72 hrs); format: cell-based, human; conditions: A 2780; for Chemo-drug LD50: WST-1, 72 hrs
# Protocol: as §5, §2, §3, §4
# Capan-1 cells = test: Cell viability of Capan-1 pancreatic metastatic cancer cells in culture (MTT or WST-1, 72 hrs); format: cell-based, human; conditions: Capan-1; for Chemo-drug LD50: WST-1, 72 hrs
# Protocol: CAPAN-1 cells (ATCC® Number: HTB-79™) are human pancreatic cancer cell line with epithelial morphology expressing the 17 beta-estradiol (E2)-binding estrogen receptor and derived from metastatic liver with adenocarcinoma.
# as §2, §3, §4
# [4] = tested on: PANC-1 human pancreatic cancer cells implanted in RAG1/Cγ double mutant NOD xenograft mice; test: PANC-1 pancreatic cancer xenograft in RAG1/Cγ double mutant NOD mice; conditions: for Liver metastases % Inhibition: vs untreated day 79
# From the text: An immunodeficient mouse model with a double mutation in the combining recombinase activating gene-1 or -2 (RAG1 or RAG2) and common cytokine receptor γ chain (cγ) were used as xenograft mice. […] Mice deficient in both RAG2 and cγ (RAG2−/−/cγ−/−) were generated by inter-crossing and were maintained in SPF isolators in the Animal Care Facility, Queen's University, Kingston, Ontario K7L3N6, Canada. A colony was established in the animal facility. Mice deficient in both RAG1 and cγ (RAG1^−/−×cγ^−/−) on a non-obese diabetic (NOD) genetic background were obtained from the Jackson Laboratory (Bar Harbor, Me.) and a colony was established in the animal facility. All mice were kept under sterile conditions in micro-isolators or air-filtered cages, and were provided with autoclaved food and water. […] They were used between 6 and 8 weeks of age.
# Puromycin-resistance eGFP transduced MiaPaCa-2 or PANC-1 cell clones were grown in 75 cm^2 cell culture flask at 80% confluence. The cells were resuspended into solution using TrypLE Express (Gibco) and washed with sterile saline. The cell suspension was centrifuged for 3 min at 900 rpm, and the cell pellet resuspended in sterile saline at a concentration of 5-10×10^6 cells/mL for 1-2×10^6 cells implantation into the right back flank of the mouse. Tumour measurements were taken twice a week. Tumour volumes were determined by (width square/2)×length.
# The RAG1/Cγ double mutant xenograft mouse model was implanted with 2×10^6 PANC-1 cells in 0.2 mL in the right back flank.
# Neu1 sialidase [5] = target: T4, Neu1 sialidase (Mus musculus, UniProt O35657); test: LPS-induced Neu1 sialidase activity in live BMA macrophage cells (4-MUNANA); format: cell-based; design: endogenous in cells; host or cells: BMA macrophage cells
# Protocol: TLR-expressing BMA macrophage cells were grown on 12 mm circular glass slides in culture media containing DMEM supplemented with 10% fetal calf serum. […] Fluorescent images were taken after 2-3 minutes using epi-fluorescent microscopy (Zeiss Imager M2, 40× objective).
# This recently developed assay was used to detect sialidase activity on the surface of viable cells. […] The inhibitory potency of a series of amide-linked C9 modified DANA (2-deoxy-2,3-dehydro-D-N-acetylneuraminic add) analogues on lipopolysaccharide (LPS)-induced Neu1 sialidase activity was assessed in live BMA macrophage cells.
# carboxylesterase = carboxylesterase (Homo sapiens, UniProt P23141); conditions: cited from earlier work
# Neu1 sialidase [6] = target: T4, Neu1 sialidase; conditions: live BMA macrophage cells; clopidogrel bisulfate 280 and 500 μM pre-treatment; LPS 5 μg/mL; oseltamivir phosphate 400 μM; cited from earlier work
# TLR4/MD2 = conditions: HEK293 cells stably transfected with TLR4/MD2; cited from earlier work
# [7] = co-treatment oseltamivir phosphate 730 μM
# [8] = co-treatment oseltamivir phosphate 1460 μM
# [9] = chemo-drug alone, abraxane 0.5 mg/kg day 78, gemcitabine 30 mg/kg day […]
# [10] = day 84, Gemcitabine 30 mg/kg alone
# [11] = day 93, Gemcitabine 30 mg/kg alone
# [12] = day 112, Gemcitabine 30 mg/kg alone
# [13] = oseltamivir phosphate 2 mg/kg, alone day 90, with abraxane 0.5 day 78, with gemcitabine 30 day 110
# [14] = oseltamivir phosphate 5 mg/kg, alone day 90, with abraxane 0.5 day 90, with gemcitabine 30 day 109
# carboxylesterase, sequence (P23141 18-567): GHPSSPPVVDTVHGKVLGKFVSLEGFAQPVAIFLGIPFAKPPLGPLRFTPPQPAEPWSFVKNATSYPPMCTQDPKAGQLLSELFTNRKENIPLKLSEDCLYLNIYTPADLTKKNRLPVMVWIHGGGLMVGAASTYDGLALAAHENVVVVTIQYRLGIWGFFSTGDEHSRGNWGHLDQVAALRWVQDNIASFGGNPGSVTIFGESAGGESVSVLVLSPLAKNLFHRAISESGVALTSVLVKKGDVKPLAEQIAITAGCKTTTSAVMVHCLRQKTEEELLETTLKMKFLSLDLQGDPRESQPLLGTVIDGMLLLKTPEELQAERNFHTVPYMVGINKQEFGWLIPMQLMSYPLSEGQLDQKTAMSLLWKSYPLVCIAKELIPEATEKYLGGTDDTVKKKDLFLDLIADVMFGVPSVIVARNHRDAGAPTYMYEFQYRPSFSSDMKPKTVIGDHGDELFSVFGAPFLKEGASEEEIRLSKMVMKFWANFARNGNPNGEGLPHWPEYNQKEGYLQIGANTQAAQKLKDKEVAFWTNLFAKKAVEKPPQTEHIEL
compound,measurement,setting,value
"CC(=O)N[C@H]1[C@H]([C@H](O)[C@H](O)CO)OC(C(=O)O)=C[C@@H]1N=C(N)N [zanamivir, 4-guanidino-Neu5Ac2en]",Inhibition of Neu3 sialidase activity (in words),Neu3 sialidase,completely inhibited
same,Inhibition of Neu1 sialidase activity (in words),Neu1 sialidase [1],completely inhibited
same,Inhibition of LPS induced sialidase activity (in words),[2],limited effect
same,Inhibition of Neu1 sialidase activity (in words),Neu1 sialidase [3],limited inhibitory effect
same,Inhibition of human Neu3 sialidase (in words),human Neu3 sialidase,significantly inhibited
CCC(CC)[C@H](NC(C)=O)[C@@H]1C[C@@H](C(=O)O)C[C@H]1N=C(N)N [BCX-1827],Inhibition of LPS induced sialidase activity (in words),[2],limited effect
"Nc1ccn([C@@H]2O[C@H](CO)[C@@H](O)C2(F)F)c(=O)n1 [gemcitabine, Gemcitabine]",Chemo-drug LD50,PANC-1 cells; [7],1.6 µM
same,Chemo-drug LD50,PANC-1 cells; [8],1.5 µM
same,Chemo-drug LD50,PANC-1 cells; oseltamivir phosphate 0 μM,>26 µM
same,Chemo-drug sensitivity with oseltamivir phosphate (fold increase),PANC-1 cells; oseltamivir phosphate 730 μM,16 fold increase
same,Chemo-drug sensitivity with oseltamivir phosphate (fold increase),PANC-1 cells; oseltamivir phosphate 1460 μM,17 fold increase
same,Chemo-drug LD50,MiaPaCa-2 cells; [7],0.78 µM
same,Chemo-drug LD50,MiaPaCa-2 cells; [8],0.078 µM
same,Chemo-drug LD50,MiaPaCa-2 cells; oseltamivir phosphate 0 μM,0.78 µM
same,Chemo-drug sensitivity with oseltamivir phosphate (fold increase),MiaPaCa-2 cells; oseltamivir phosphate 730 μM,1 fold increase
same,Chemo-drug sensitivity with oseltamivir phosphate (fold increase),MiaPaCa-2 cells; oseltamivir phosphate 1460 μM,10 fold increase
same,Chemo-drug LD50,MCF-7 cells; [7],40 µM
same,Chemo-drug LD50,MCF-7 cells; oseltamivir phosphate 0 μM,40 µM
same,Chemo-drug sensitivity with oseltamivir phosphate (fold increase),MCF-7 cells; oseltamivir phosphate 730 μM,1 fold increase
same,Chemo-drug LD50,MDA MB-231 cells; [7],40 µM
same,Chemo-drug LD50,MDA MB-231 cells; oseltamivir phosphate 0 μM,70 µM
same,Chemo-drug sensitivity with oseltamivir phosphate (fold increase),MDA MB-231 cells; oseltamivir phosphate 730 μM,2 fold increase
same,Chemo-drug LD50,A 2780cis cells; [7],40 µM
same,Chemo-drug LD50,A 2780cis cells; oseltamivir phosphate 0 μM,60 µM
same,Chemo-drug sensitivity with oseltamivir phosphate (fold increase),A 2780cis cells; oseltamivir phosphate 730 μM,1.5 fold increase
same,Chemo-drug LD50,BxPC-3 cells; [7],0.78 µM
same,Chemo-drug LD50,BxPC-3 cells; [8],1 µM
same,Chemo-drug LD50,BxPC-3 cells; oseltamivir phosphate 0 μM,0.78 µM
same,Chemo-drug sensitivity with oseltamivir phosphate (fold increase),BxPC-3 cells; oseltamivir phosphate 730 μM,1 fold increase
same,Chemo-drug sensitivity with oseltamivir phosphate (fold increase),BxPC-3 cells; oseltamivir phosphate 1460 μM,0.78 fold increase
same,Chemo-drug LD50,A 2780 cells; [7],40 µM
same,Chemo-drug LD50,A 2780 cells; oseltamivir phosphate 0 μM,60 µM
same,Chemo-drug sensitivity with oseltamivir phosphate (fold increase),A 2780 cells; oseltamivir phosphate 730 μM,1.5 fold increase
same,Chemo-drug LD50,Capan-1 cells; [7],30 µM
same,Chemo-drug LD50,Capan-1 cells; oseltamivir phosphate 0 μM,60 µM
same,Chemo-drug sensitivity with oseltamivir phosphate (fold increase),Capan-1 cells; oseltamivir phosphate 730 μM,2 fold increase
same,Liver metastases (ave number of nodules),[4]; [9],12
same,"Metastases (size, mm)",[4]; [9],0.3-1.5 mm
same,Tumour volume,"[4]; day 79, chemotherapeutic alone (Abraxane 0.5 mg/kg or Gemcitabine 30 mg/kg i.p. once weekly)",200 ± 47 (5) mm^3
same,% Inhibition To untreated,"[4]; day 79, chemotherapeutic alone (Abraxane 0.5 or Gemcitabine 30 mg/kg)",86%
same,% Inhibition To untreated,"[4]; day 79, chemotherapeutic alone (Abraxane 0.5 or Gemcitabine 30 mg/kg), listed as Gemcitabine",86% (p < 0.0001)
same,% Inhibition To untreated,[4]; [10],89%
same,Tumour volume,[4]; [10],159 ± 52 (5) mm^3
same,% Inhibition To untreated,"[4]; day 84, Gemcitabine 30 mg/kg alone, listed as Gemcitabine",89% (p < 0.0001)
same,% Inhibition To untreated,[4]; [11],69%
same,Tumour volume,[4]; [11],437 ± 140 (3) mm^3
same,% Inhibition To untreated,"[4]; day 93, Gemcitabine 30 mg/kg alone, listed as Gemcitabine",69% (p < 0.0001)
same,% Inhibition To untreated,[4]; [12],63%
same,Tumour volume,[4]; [12],507 ± 357(2) mm^3
same,% Inhibition To untreated,"[4]; day 112, Gemcitabine 30 mg/kg alone, listed as Gemcitabine",63%
same,Liver metastases (ave number of nodules),"[4]; oseltamivir phosphate 2 mg/kg, alone day 90, with abraxane 0.5 mg/kg day 78, with gemcitabine 30 mg/kg day 110",10
same,"Metastases (size, mm)",[4]; [13],0.5-1.2 mm
same,Liver metastases % Inhibition,[4]; [13],76%
same,Liver metastases (ave number of nodules),"[4]; oseltamivir phosphate 5 mg/kg, alone day 90, with abraxane 0.5 mg/kg day 90, with gemcitabine 30 mg/kg day 109",8
same,"Metastases (size, mm)",[4]; [14],0.2-1.5 mm
same,Liver metastases % Inhibition,[4]; [14],81%
"CC(=O)N[C@H]1[C@H]([C@H](O)[C@H](O)CO)OC(C(=O)O)=C[C@@H]1O [DANA, 2-deoxy-2,3-dehydro-N-acetylneuraminic acid]",Inhibition of Neu1 sialidase (in words),Neu1 sialidase [5],moderate inhibitor of Neu1 sialidase
same,Inhibition of LPS induced sialidase activity (in words),[2],limited effect
COC(=O)[C@H](c1ccccc1Cl)N1CCc2sccc2C1 [clopidogrel],Inhibition of hydrolysis of oseltamivir phosphate by carboxylesterase,carboxylesterase,≤ 90%
same,Effect on oseltamivir phosphate's capacity to inhibit LPS induced sialidase activity,Neu1 sialidase [6],no effect
"galectin-1: α-2,3-sialyl specific galectin-1",Inhibition of TLR ligand-induced NFκB responses (in words),TLR4/MD2,significantly inhibited

# Source: patent US10350188B2, “Use of Neu1 sialidase inhibitors in the treatment of cancer” (priority 2011, dated 2019)
